Measurements taken from patent publication US9102636B2, “Analgesic compounds, compositions, and uses thereof” (Galleon Pharmaceuticals, Inc., priority 2010, dated 2015).
Several values for one entry are separate records, joined by “and”; a condition that tells them apart may be missing. Equal values may be shown once. Entries after “also recorded” stand apart in the source; their conditions may differ.

Tests used:
[1] = tested on: FCA induced tactile allodynia; test: FCA induced tactile allodynia (electronic von Frey); assay type: in vivo, rat
Method: Compound 2 was evaluated in the rat Freund's complete adjuvant (FCA) model of inflammatory pain. The rat Freund's complete adjuvant (FCA) intraplantar model of inflammatory pain produces behaviors similar to those observed in patients and has been widely used to assess novel pharmacological treatments (Lam et al., 2008, J Ethnopharmacol. 120:44-50). The positive control was celecoxib (TRC, Montreal), and the negative control was vehicle (0.5% methyl cellulose, in phosphate buffered saline). […] The Hargreaves apparatus was obtained from Ugo Basile, Italy. The Freund's complete adjuvant was obtained from Sigma, St. Louis, and the electronic von frey was obtained from Stoelting, Ill. For this assay, paw withdrawal latency to a thermal stimulus was assessed using a radiant heat source (Ugo Basile, Italy) aimed at the plantar surface of the left hind paw (Hargreaves test; […] Paw withdrawal thresholds to a non-noxious tactile stimulus was assessed using an electronic von Frey apparatus that presented an increasing mechanical force to the plantar surface of the hind paw. Paw volume was measured by displacement of water and assuming a tissue density equal to that of water. […] Celecoxib (30 mg/kg p.o.) served as the positive control. […] After induction of anesthesia, the injection site was prepared in a sterile manner and 100 μl of a 50% suspension of FCA injected. After injection, animals were weighed and allowed to recover before being returned to their home cages. Statistical significance was determined on untransformed data using a two-way analysis of variance (Graphpad Prism, NC). Significant main effects were analyzed further by subsequent Bonferronni post-hoc test. The level of significance was set at p<0.05. Data are shown as mean±S.E.M. (with an asterisk to denote significance as compared to vehicle treated controls).

[2] = tested on: Carrageenan-induced edema; test: Carrageenan-induced edema (paw volume); assay type: in vivo, rat
Method: The effect of Compound 2 in the rat carrageenan model of acute inflammatory pain was evaluated. The intraplantar carrageenan model of acute inflammatory pain in the rat results in behaviors similar to that observed in patients and has been widely used to assess novel pharmacological treatments (Whiteside et al., 2005, J. Pharmacol. Exp. Ther. 314:1234-1240). The objective of this study was to evaluate the ability of Compound 2 to reverse or prevent development of thermal hyperalgesia and edema in the rat carrageenan model of acute inflammatory pain. The positive control was indomethacin (Sigma, St. Louis), and the negative control was vehicle (0.5% methyl cellulose). […] The Hargreaves apparatus was obtained from Ugo Basile, Italy, and the lamba-carrageenan was obtained from Sigma, St. Louis. For this assay, paw withdrawal latency to a thermal stimulus was assessed using a radiant heat source (Ugo Basile, Italy) aimed at the plantar surface of the left hind paw (Hargreaves test). […] Paw volume was measured by displacement of water and assuming a tissue density equal to that of water. Baseline latencies were taken prior to carrageenan administration and re-assessed 4 h later. […] Indomethacin (positive control, 30 mg/kg p.o.) was administered prior to carrageenan and behavior assessed 4 hrs post-carrageenan. […] After induction of anesthesia, the injection site was prepared in a sterile manner and 50 μl of a 2% Jamba-carrageenan was injected. After injection, animals were weighed and allowed to recover before being returned to their home cages. Statistical significance was determined on untransformed data using a two-way analysis of variance (Graphpad Prism, NC). Significant main effects were analyzed further by subsequent Bonferronni post-hoc test. The level of significance was set at p<0.05. Data are shown as mean±S.E.M. (with an asterisk to denote significance as compared to vehicle treated controls).

[3] = tested on: capsaicin-mediated hyperalgesia; test: Capsaicin-induced hyperalgesia; assay type: in vivo; details: rat; IV prior to intra-plantar capsaicin; FIG. 8
ataxia (rotarod) = test: Accelerating rotarod assay of ataxia (latency to fall); assay type: in vivo, rat; details: for Latency to fall: maximum 300 seconds, individual animals
Method: Compound 2 was evaluated in a rat accelerating rotarod model of ataxia. Ataxia is a common clinical problem with CNS-active compounds and can often confound interpretation of efficacy in preclinical pain models. The rotarod assay of ataxia has been widely used to assess the side-effect liability of novel pharmacological treatments (Jones & Roberts, 1968, J. Pharm. […] The positive control was haloperidol (Sigma, St. […] Male Sprague-Dawley Rats (Harlan, Ill.) were 250-300 g at time of dosing. Rotarod was obtained from IITC, CA. To examine the potential effects of Compound 2 on motor performance, rats were tested on an accelerating rotarod (IITC, Ca). […] Rats received two timed training trials (averaged to give the reported baseline) on the first day, then 24 hr later rats were administered Compound 2 (30, 100 and 300 mg/kg, p.o.), haloperidol (3 mg/kg, p.o.), the positive control, or vehicle. […] Statistical significance was determined on untransformed data using a two-way analysis of variance (Graphpad Prism, NC). Significant main effects were analyzed further by subsequent Bonferronni post-hoc test. The level of significance was set at p<0.05. Data are shown as mean±S.E.M. (with an asterisk to denote significance as compared to vehicle treated controls).

Question: Which “Paw withdrawl threshold” value ([1]; 30 (min post-dose), 30 mg/kg p.o. 24 hours post-FCA, 30 mg/kg) does the source give for `CC1(C)SC(Nc2ccccc2O)=N[C@@H]1C(=O)O` [Compound 2, (R)-2-(2-hydroxyphenylamino)-thiazoline-5,5-dimethyl-4-carboxylic acid] here?
Answer: 19.3 g and 32.6 g and 27.3 g and 30.2 g and 26.3 g and 19.5 g

Question: And the “Paw withdrawl threshold” value ([1]; 30 (min post-dose), 100 mg/kg p.o. 24 hours post-FCA, 100 mg/kg)?
Answer: 28.6 g and 27.9 g and 19.3 g and 34.6 g and 31.6 g and 21 g

Question: And the “Paw withdrawl threshold” value ([1]; 60 (min post-dose), 3 mg/kg p.o. 24 hours post-FCA, 3 mg/kg)?
Answer: 22 g and 16.5 g and 21.4 g and 15.7 g and 22.3 g and 18 g

Question: What about the “Paw withdrawl threshold” value ([1]; 60 (min post-dose), 30 mg/kg p.o. 24 hours post-FCA, 30 mg/kg) of the same compound?
Answer: 24 g and 24.2 g and 26.5 g and 21.6 g and 27.4 g and 31.1 g

Question: And the “Paw withdrawl threshold” value ([1]; 60 (min post-dose), 100 mg/kg p.o. 24 hours post-FCA, 100 mg/kg)?
Answer: 31.2 g and 27.5 g and 35.3 g and 29.1 g and 30.3 g and 34.6 g

Question: What about the “Paw withdrawl threshold” value ([1]; BL(D1), 24 hours post-FCA before dosing, 3 mg/kg group, 3 mg/kg) of the same compound?
Answer: 20.5 g and 15.3 g and 18.5 g and 16.5 g and 17.3 g and 15.8 g

Question: And the “Paw withdrawl threshold” value ([1]; BL(D1), 24 hours post-FCA before dosing, 30 mg/kg group, 30 mg/kg)?
Answer: 15 g and 19.2 g and 18.2 g and 22.5 g and 17.8 g and 16.5 g

Question: What about the “Paw withdrawl threshold” value ([1]; BL(D1), 24 hours post-FCA before dosing, 100 mg/kg group, 100 mg/kg) of the same compound?
Answer: 12.8 g and 13.9 g and 16 g and 19.3 g and 23.51 g and 12.6 g

Question: What about the “Paw withdrawl threshold” value ([1]; baseline (pre-FCA), 3 mg/kg group, individual rats, 3 mg/kg) of the same compound?
Answer: 36.1 g and 32.4 g and 35.8 g and 33.4 g and 34.4 g and 30.9 g

Question: And the “Paw withdrawl threshold” value ([1]; baseline (pre-FCA), 10 mg/kg group, individual rats, 10 mg/kg)?
Answer: 28.6 g and 26.67 g and 37.9 g and 31.3 g and 39 g and 31.8 g

Question: What about the “Paw withdrawl threshold” value ([1]; baseline (pre-FCA), 30 mg/kg group, individual rats, 30 mg/kg) of the same compound?
Answer: 33.2 g and 34.9 g (2×) and 36.6 g and 35.6 g and 33.4 g

Question: What about the “Paw withdrawl threshold” value ([1]; baseline (pre-FCA), 100 mg/kg group, individual rats, 100 mg/kg) of the same compound?
Answer: 31.8 g and 26.6 g and 27.6 g and 33.33 g and 37.8 g and 31.9 g

Question: What about the “Paw withdrawal latency (s), FIG. 18B” value ([1]; baseline (prior to FCA), individual rats) of the same compound?
Answer: 29.6 s (2×) and 32.5 s and 29.8 s and 27.5 s and 31.4 s

Question: And the “Paw withdrawal latency (s), FIG. 18B” value ([1]; day 1, compound 2 25 mg/kg i.v. preemptive, individual rats, 25 mg/kg)?
Answer: 36.7 s and 26.7 s and 38.9 s and 25 s and 27 s and 29 s

Question: What about the “Paw withdrawal latency (s), FIG. 18B” value ([1]; day 3, compound 2 25 mg/kg i.v. preemptive, individual rats, 25 mg/kg) of the same compound?
Answer: 29.8 s and 28 s and 30 s and 27.7 s and 23.5 s and 33.8 s

Question: And the “Paw withdrawal latency (s), FIG. 18B” value ([1]; day 4, compound 2 25 mg/kg i.v. preemptive, individual rats, 25 mg/kg)?
Answer: 25 s and 27.23 s and 36.5 s and 31.3 s and 31.9 s and 24.3 s

Question: What about the “reversal of FCA-induced tactile allodynia (finding in words)” value ([1]; rat, 3, 10, 30 and 100 mg/kg p.o. curative, 24 hours post-FCA, significant at 10, 30 and 100 mg/kg, 30 and 60 minutes) of the same compound?
Answer: significant reversal of FCA induced tactile allodynia; also recorded: able to reverse established inflammatory tactile allodynia; also recorded: significantly reversed

Question: And the “FCA-induced tactile allodynia (finding in words)” value ([1]; rat, p.o. single dose 25 mg/kg preemptive)?
Answer: significantly prevented

Question: And the “FCA tactile allodynia (finding in words)” value ([1]; rat, single dose 25 mg/kg i.v. preemptive, significant 24, 48 and 72 hours post-FCA, 25 mg/kg)?
Answer: prevented the development; also recorded: significantly prevented

Question: What about the “Paw volume” value ([2]; 1 hr post-drug, compound 2 10 mg/kg p.o. 3 hrs after carrageenan (curative), FIG. 21B, 10 mg/kg) of the same compound?
Answer: 2.6 mL and 2.9 mL and 2.5 mL and 2.7 mL

Question: What about the “Paw volume” value ([2]; 1 hr post-drug, compound 2 30 mg/kg p.o. 3 hrs after carrageenan (curative), FIG. 21B, 30 mg/kg) of the same compound?
Answer: 2.4 mL and 2.6 mL and 2.5 mL and 2.9 mL and 2.3 mL

Question: And the “Paw volume” value ([2]; Pre-Cg, compound 2 10 mg/kg group, individual rats, FIG. 21B, 10 mg/kg)?
Answer: 1.7 mL (2×) and 1.8 mL (3×) and 1.6 mL

Question: What about the “Paw volume” value ([2]; Pre-Cg, compound 2 30 mg/kg group, individual rats, FIG. 21B, 30 mg/kg) of the same compound?
Answer: 1.6 mL (3×) and 1.7 mL (2×) and 1.8 mL and 1.5 mL

Question: What about the “Paw volume” value ([2]; compound 2 10 mg/kg p.o. preemptive, 4 hr post-drug, individual animals, 10 mg/kg) of the same compound?
Answer: 3.3 mL and 2.8 mL (2×) and 3.2 mL and 3.1 mL and 2.9 mL

Question: And the “Paw volume” value ([2]; compound 2 10 mg/kg p.o. preemptive, Pre-Cg, individual animals, 10 mg/kg)?
Answer: 1.7 mL (2×) and 1.6 mL (3×) and 1.5 mL

Question: And the “Paw volume” value ([2]; compound 2 30 mg/kg p.o. preemptive, 4 hr post-drug, individual animals, 30 mg/kg)?
Answer: 2.9 mL and 2.7 mL (4×) and 2.8 mL

Question: What about the “Paw volume” value ([2]; compound 2 30 mg/kg p.o. preemptive, Pre-Cg, individual animals, 30 mg/kg) of the same compound?
Answer: 1.7 mL (3×) and 1.6 mL (2×) and 1.8 mL

Question: And the “carrageenan-induced edema, preemptive (finding in words)” value ([2]; rat, 10 and 30 mg/kg p.o. 15 minutes prior to carrageenan)?
Answer: did not significantly prevent

Question: What about the “carrageenan-induced edema, curative (finding in words)” value ([2]; rat, p.o. 3 hours post-carrageenan, significant at 30 mg/kg, 30 mg/kg) of the same compound?
Answer: significantly reversed edema

Question: What about the “effect on capsaicin-mediated hyperalgesia” value [3] of the same compound?
Answer: inhibits capsaicin-mediated hyperalgesia

Question: What about the “Latency to fall” value (ataxia (rotarod); compound 2 30 mg/kg p.o., Baseline, 30 mg/kg) of the same compound?
Answer: 70 sec and 108.5 sec and 72 sec and 68 sec (2×) and 52 sec and 49 sec and 60.5 sec and 48.5 sec and 47.5 sec (2×) and 97 sec

Question: What about the “Latency to fall” value (ataxia (rotarod); compound 2 30 mg/kg p.o., Post-Drug (1 hr), 30 mg/kg) of the same compound?
Answer: 39 s and 99 s and 72 s and 94 s and 66 s and 81 s and 133 s and 120 s and 56 s and 115 s and 50 s and 70 s

Question: And the “Latency to fall” value (ataxia (rotarod); compound 2 100 mg/kg p.o., Baseline, 100 mg/kg)?
Answer: 43.5 s and 75.5 s and 55 s and 63 s and 60.5 s and 73.5 s and 73 s and 72 s and 54.5 s and 54 s and 46.5 s and 53 s

Question: And the “Latency to fall” value (ataxia (rotarod); compound 2 100 mg/kg p.o., Post-Drug (1 hr), 100 mg/kg)?
Answer: 86 sec and 64 sec and 45 sec (2×) and 111 sec and 91 sec and 221 sec and 72 sec (2×) and 66 sec and 20 sec and 199 sec

Question: What about the “Latency to fall” value (ataxia (rotarod); compound 2 300 mg/kg p.o., Baseline, 300 mg/kg) of the same compound?
Answer: 84 sec and 76.5 sec and 57 sec and 86.5 sec (2×) and 81.5 sec and 79 sec and 71.5 sec and 61 sec and 97.5 sec and 89 sec

Question: What about the “Latency to fall” value (ataxia (rotarod); compound 2 300 mg/kg p.o., Post-Drug (1 hr), 300 mg/kg) of the same compound?
Answer: 184 sec (2×) and 55 sec (2×) and 112 sec and 105 sec and 124 sec and 175 sec and 43 sec and 131 sec and 78 sec

Question: What about the “latency to fall, accelerating rotarod (finding in words)” value (ataxia (rotarod); rat, 30, 100 and 300 mg/kg p.o., 1 hr post-dosing) of the same compound?
Answer: did not significantly decrease latency to fall; also recorded: did not significantly reduce latency to fall
